{"source": "paper PMC3858832", "about": "(Journal of Controlled Release, 2013)", "key": {"[1]": {"assay": "Far-UV circular dichroism pH titration, midpoint of conformational transition (pKα)", "type": "physicochemical", "conditions": "far-UV CD intensity at 220 nm vs pH; peptide 30-50 μM in 5 mM Tris amine titrated with HClO4; 37 °C (310 K); average of two or more independent experiments", "text": "Therefore, we first investigated whether reducing hydrogen-bonding opportunities at the Dap side chain amine would improve its tolerance by cells in culture. Alkylation of the Dap primary amine may however also impact on the pKa. […] Measurement of side chain pKa in a peptide undergoing a conformational transition associated with a change in aggregation state is hindered by the large amounts of material required for potentiometric analyses and the unfavourable line broadening observed in NMR for self-associated peptides. Instead, we have observed the cooperative, pH responsive, change of conformation of cationic amphipathic peptides in aqueous solution using far-UV CD (Supp. Fig. 1B/C). LADap (Sup. Fig. 1B) and LADap(Me2) (Supp. Fig. 1C) adopt an α-helix conformation when dissolved in neutral or slightly basic aqueous solution and, when titrated with acid, an increasingly disordered conformation is observed. The CD intensity at 220 nm is considered indicative of α-helix content and can be plotted as a function of pH (Supp. Fig. 1D/E). […] Although other interactions may be expected to contribute to the pKα when compared with the pKa, an increase of the same magnitude (~ 0.6 pH units) is seen in both the pKα for the Dap rich peptide and the pKa for the model compound following dimethylation (Supp. Fig. 1D/E; Table 1).\nFar-UV CD spectra were obtained for LAH4-L1, LAH6-L1 and the Dap and mono-methyl Dap containing analogues in aqueous Tris amine buffer at various pH (Supp. Fig. 4). […] For LAH4-L1, the pKα = 5.29 ± 0.25 and is in agreement with previous work while pKα = 4.45 ± 0.25 for LAH6-L1 is substantially higher than that reported recently for LAH6 peptides of greater hydrophobicity. The response of LADap4-L1 at 6.64 ± 0.08 is substantially more basic than the histidine-containing analogue. […]\nCircular dichroism experiments - Peptides were dissolved in 5 mM Tris amine without pH adjustment at a final concentration of between 30 and 50 μM. The samples were titrated down by adding 0.3% or 1% (v/v) HClO4 solution in micro-litre amounts. ClO4- is optically […]\nby HClO4 makes a significant improvement on spectral quality in the far-UV region. CD spectra were acquired on a Chirascan™ Spectrometer (Applied Photophysics, Leatherhead, UK) with samples maintained at 310 K. For pH titration experiments, far-UV CD spectra were obtained with the samples titrated down by adding 0.3% or 1% (v/v) HClO4 solution in micro-litre amounts. Spectra were recorded from 260 to 180 nm using a 0.5 mm path length and were processed using Chirascan software where a spectrum of the peptide free solution was subtracted and Savitzky-Gorlay smoothing with a convolution width of 5 points applied.\nResults for all CD assay measurements are expressed as an average of two or more independent repeated experiments. […]\nThe pellets, containing lipid vesicles and associated peptides were transferred to Bruker 4 mm MAS rotors for NMR measurements. Lipid vesicles were also prepared in this way in the absence of peptide.\nSolid-state NMR - 2H quadrupole echo experiments for samples containing either POPC-d31 or POPS-d31 were performed at 61.46 MHz on a Bruker Avance 400 NMR"}, "[2]": {"test_system": "MCF-7 cells", "assay": "Luciferase reporter gene transfection of MCF-7 cells", "type": "cell-based, human", "conditions": "1 μg luciferase plasmid/well, 48 h", "description": "The ability of the peptides to mediate nucleic acid transfer was first assessed by monitoring the delivery of luciferase reporter gene to both A549 and MCF-7 human breast cancer cells (Fig. 2A).\n(§3) Further Materials - Dulbecco’s modified eagle medium (DMEM), RPMI-1640 medium,\n(§4) Opti-MEM 1 reduced serum medium, antibiotic-antimycotic liquid, fetal bovine serum (FBS)\n(§5) and Lipofectamine 2000™ were purchased from Invitrogen (CA, USA). The luciferase assay\n(§6) system was purchased from Promega (Madison, WI, USA).\nPlasmid DNA (gWIZ™ Luciferase) was\n(§7) Cell culture and DNA transfection - A549, MCF-7 and THP-1 cells were obtained from\n(§8) ATCC (Manassas, VA, USA). The cells were maintained at 5% CO2, 37°C in DMEM\n(§9) supplemented with 10% FBS, 100 units/ml penicillin, 100 μg/ml streptomycin and 0.25\n(§10) μg/ml amphotericin B. The cells were subcultured once weekly. Cells were transfected with\n(§11) peptide/DNA complexes at 1 μg luciferase /well in 24-well plates and with peptide to DNA\n(§12) seeding density was 5 × 10^4 cells per well. The complexes were prepared in Opti-MEM I\nreduced serum medium. After 4 hours of incubation at 37°C, the cells were washed with PBS\nand fresh DMEM supplemented with 10% FBS were added to the cells. After 48 hours, the\nluciferase expression was detected using the luciferase assay system according to the\nmanufacturer’s protocol. The cells were transfected with Lipofectamine 2000™ at 2 μl per […]"}, "[3]": {"test_system": "A549 cells", "assay": "Luciferase reporter gene transfection of A549 cells", "type": "cell-based, human", "conditions": "light units per well", "description": "The ability of the peptides to mediate nucleic acid transfer was first assessed by monitoring the delivery of luciferase reporter gene to both A549 and MCF-7 human breast cancer cells (Fig. 2A). Lipofectamine 2000™ was used here as a benchmark and at an optimised volume to weight DNA ratio of 2:1 to minimise toxicity seen in the earlier experiments (Supp. Fig. 1H).\nas §3, §4, §5, §6\nPlasmid DNA (gWIZ™ Luciferase) was\nas §7, §8, §9, §10, §11, §12\nreduced serum medium. After 4 hours of incubation at 37°C, the cells were washed with PBS […]\nluciferase expression was detected using the luciferase assay system according to the […]"}, "[4]": {"test_system": "GAPDH expression in A549 cells", "assay": "siRNA-mediated silencing of GAPDH expression in A549 cells (Western blot densitometry), with or without BALF", "type": "cell-based, human", "conditions": "Western blot densitometry 72 h post transfection", "protocol": "(§13) The abilities of the peptides to successfully mediate specific silencing of GAPDH expression were then assessed in A549 cells (Fig. 2B), MCF-7 cells (Fig. 2C), HUVEC (Fig. 3A), THP-1 cells differentiated into macrophages (Fig. 4A) and undifferentiated THP-1 cells in suspension (Fig. 4B). Specific reductions in expression of GAPDH were assessed by densitometry of Western blots where the effects of administering siRNA targeting GAPDH was compared with that of non-targeting siRNA on the expression of GAPDH as endogenous reporter and β-actin as internal toxicity/specificity control (Figs. 2D, 3B, 4C).\nTo test the suitability of the peptides for future pulmonary delivery applications in vivo the ability of the peptides to mediate silencing of GAPDH expression in A549 cells was repeated in the presence of bronchoalveolar lavage fluid (BALF) as a model for airway surface liquid (ASL) (Fig. 2E/F).\n(§14) siRNA transfection - A549, MCF-7 and THP-1 cells, were transfected with peptide/siRNA\ncomplexes containing 50 or 100 pmol GAPDH siRNA or negative control siRNA/well in 6-\nwell plates, giving a final siRNA concentration of 50 or 100 nM. Cells were seeded at the\nfollowing densities; A549 and MCF-7 - 1 × 10^5 cells per well, THP-1 in suspension – 5 ×\n10^5 cells per well, differentiated THP-1 – 1 × 10^6 cells per well."}, "[5]": {"test_system": "A549 cells", "assay": "Protein content per well as measure of cytotoxicity during transfection of A549 cells", "type": "cell-based, human", "conditions": "luciferase plasmid transfection, compared with LADap(Me2)", "text": "The pKα of LADap(Me2) is raised by N,N-dimethylation and is likely to be too high to substantially aid endosomal release; dimethylation nevertheless has beneficial effects on the nucleic acid transfer properties of the resulting peptide. […] However, the protein content of the cells, commonly used to calibrate the amount of specific luciferase activity, can be misleading. […] Accordingly, the transfection efficacies of LADap and Lipofectamine 2000™ (4:1) in this experiment are substantially overstated. When luciferase activity is plotted per well (Supp. Fig. 1H), not only is the robust and non-toxic transfection efficacy of LAH4-L1 evident, offering a 13.0 fold improvement over Lipofectamine 2000™, but also the advantages of LADap(Me2) over LADap are clear. The luciferase delivery efficacy of LADap(Me2) however was insufficient for it to be considered for siRNA delivery and further modifications were conceived.\nLuciferase Activity (light units/10 s)\nLuciferase Activity (light units/10 s/mg protein)\nMean Residue Ellipticity @220 nm (deg cm […]\nSupplementary Figure 1. […] The midpoint of the conformational transition is determined as 6.22 ± 0.16 for LADap4 (D) and 6.80 ± 0.11 for LADap(Me2)4 (E). […] Lipofectamine and LADap4 are toxic to A549 cells but the N,N-dimethylation of Dap (LADap(Me2)4) reduces toxicity and increases gene transfer efficacy despite the high pKα determined in […]"}, "[6]": {"test_system": "GAPDH expression in suspension monocyte THP-1 cells", "assay": "siRNA-mediated silencing of GAPDH expression in suspension monocyte THP-1 cells (Western blot densitometry)", "type": "cell-based, human", "conditions": "siRNA at 20 or 40 nM, peptide/siRNA 10:1 w/w, Western blot 72 h, three independent experiments", "protocol": "as §13\nCells were transfected with peptide/siRNA complexes containing GAPDH siRNA (+) or negative control siRNA (−) and β-actin served as an internal control for equal protein loading and off target effects. Densitometry results are shown for as an average of three independently repeated experiments (C). […] Vectors were prepared as for siRNA transfection experiments and the peptide to siRNA weight ratio was 10:1 in all cases.\nThe cells were transfected with Lipofectamine 2000™ at 2 μl per\nwell under the same conditions.\nas §14\ncomplexes containing 50 or 100 pmol GAPDH siRNA or negative control siRNA/well in 6- […]\nThe bound secondary antibodies were detected with ECL™ Western blotting detection […]"}, "[7]": {"assay": "Solubility in aqueous media / 50% trifluoroethanol", "type": "physicochemical", "method": "(§1) A further six N,N-dimethyl-Dap variant, LADap(Me2)6-A1 was prepared in an attempt to circumvent this by reducing the hydrophobicity by substituting four leucines with alanine.\nSupplementary Figure 6. far-UV CD spectrum of LADap(Me2)6-L1 in 50% TFE.\nA further six N,N-dimethyl-Dap variant, LADap(Me2)6-A1 was prepared in an attempt to circumvent this by reducing the hydrophobicity by substituting four leucines with alanine. While a small improvement in […]\nspectrum was obtained (Supp. Fig. 6) which indicated the desired α-helix conformation would theoretically be obtainable if it could be delivered to the endosomal membrane.\n(§2) (1 picture or pasted object on this page, not shown here)"}, "[8]": {"assay": "Analytical HPLC retention time as indicator of peptide hydrophobicity", "type": "physicochemical", "conditions": "5-90% water/acetonitrile gradient, Waters Symmetry C8, 5 μm, 7.8 x 100 mm, Abs 215 nm", "method": "as §1\nSupplementary Figure 5. Analytical HPLC of three Dap rich peptides with differing levels of alkylation. A 5-90% water/acetonitrile gradient system was used using a Waters Symmetry™ C8, 5 μm, 7.8 x 100 mm column. The N-methylation of LADap-6-L1 to LADap(Me)6-L1 reduces the retention time of the peptide marginally however N,N-dimethylation to LADap(Me2)6-L1 causes a substantial shift to longer retention time and is consistent with the insolubility of this latter peptides in aqueous media. A fourth peptide, […]\nalanine residues did improve hydrophobicity but not sufficiently to make the peptide readily soluble in […]\nas §2"}}, "note": "Where no end group is shown, it is not given here."}
{"substance": "KKALLAXALXLLALLALXLAXALKKA-NH2 [LADap4-L1, LAH4-L1 derivative comprising four Dap residues]", "values": [{"measurement": "pKα at 37 °C (midpoint of the main conformational transition)", "setting": "[1]", "result": "6.64 ± 0.08"}]}
{"substance": "KKLAHALHLLALLWLHLAHALKKA-NH2 [reference compound]", "values": [{"measurement": "pKα at 37 °C (midpoint of the main conformational transition)", "setting": "[1]", "result": 5.33}]}
{"substance": "KKALLAXALXLLALLALXLAXALKKA-NH2 [LADap(Me)4-L1, LAH4-L1 derivative comprising four N-methylated Dap residues]", "values": [{"measurement": "fold improvement in luciferase expression over LADap4-L1", "setting": "[2]", "result": 4.1, "unit": "fold"}, {"measurement": "fold improvement in luciferase expression over LAH4-L1", "setting": "[2]", "result": 2.0, "unit": "fold"}, {"measurement": "pKα at 37 °C (midpoint of the main conformational transition)", "setting": "[1]", "result": "6.62 ± 0.04"}]}
{"substance": "KKHLLAHLLHLLALLALHLLHALKHK-NH2 [LAH6-L1]", "values": [{"measurement": "pKα at 37 °C (midpoint of the main conformational transition)", "setting": "[1]", "result": "4.45 ± 0.25"}]}
{"substance": "KKXLLAXLLXLLALLALXLLXALKXK-NH2 [LADap6-L1, 26-residue peptide with six Dap residues]", "values": [{"measurement": "pKα at 37 °C (midpoint of the main conformational transition)", "setting": "[1]", "result": "5.67 ± 0.17"}]}
{"substance": "KKLAXALXLLALLWLXLAXALKKA-NH2 [LADap(Me2), 24-residue cationic amphipathic peptide with four N,N-dimethyl-Dap residues]", "values": [{"measurement": "pKα at 37 °C (midpoint of the main conformational transition)", "setting": "[1]", "result": "6.80 ± 0.11"}]}
{"substance": "KKALLAHALHLLALLALHLAHALKKA-NH2 [LAH4-L1, reference compound]", "values": [{"measurement": "fold improvement in luciferase activity per well over Lipofectamine 2000 (4:1)", "setting": "[3]", "result": 13.0, "unit": "fold"}, {"measurement": "pKα at 37 °C (midpoint of the main conformational transition)", "setting": "[1]", "result": "5.29 ± 0.25"}, {"measurement": "reduction of GAPDH expression (silencing)", "setting": "[4]; 50% BALF", "result": "29.4 ± 11.8", "unit": "%"}, {"measurement": "reduction of GAPDH expression (silencing)", "setting": "[4]; Opti-MEM I", "result": "73.5 ± 3.7", "unit": "%"}]}
{"substance": "KKLAXALXLLALLWLXLAXALKKA-NH2 [LADap, 24-residue cationic amphipathic peptide with four Dap residues]", "values": [{"measurement": "cytotoxicity by protein content of wells", "setting": "[5]", "result": "notably more toxic"}, {"measurement": "pKα at 37 °C (midpoint of the main conformational transition)", "setting": "[1]", "result": "6.22 ± 0.16"}]}
{"substance": "KKXLLAXLLXLLALLALXLLXALKXK-NH2 [LADap(Me)6-L1, 26-residue peptide with six N-methyl Dap residues]", "values": [{"measurement": "reduction of GAPDH expression", "setting": "[6]", "result": "92.3 ± 3.7", "unit": "%"}, {"measurement": "reduction of GAPDH expression (silencing)", "setting": "[4]; Opti-MEM I", "result": "88.0 ± 6.8", "unit": "%"}]}
{"substance": "KKXLLAXLLXLLALLALXLLXALKXK-NH2 [LADap(Me2)6-L1, 26-residue peptide with six N,N-dimethyl-Dap residues]", "values": [{"measurement": "solubility in 50% trifluoroethanol", "setting": "[7]; 50% trifluoroethanol", "result": "soluble in 50% trifluoroethanol"}, {"measurement": "solubility in aqueous media", "setting": "[7]", "result": "insoluble in aqueous media"}]}
{"substance": "KKXLLAXALXALLALLAXLAXALKXK-NH2 [LADap(Me2)6-A1, more hydrophilic six N,N-dimethyl-Dap variant, four leucines substituted with alanine]", "values": [{"measurement": "HPLC retention time (measure of hydrophobicity)", "setting": "[8]", "result": 28.37, "unit": "min"}, {"measurement": "solubility in aqueous media", "setting": "[7]", "result": "insufficiently soluble"}]}
